Assay [1] concerns GSK-3. The note with it: read-out: concentration that inhibits GSK-3 to half maximal activity; cited from earlier work.
In assay [2] the test system is HeLa cells. The assay can be described thus: Adenovirus infection, Trypan Blue viability cell counts and morphology. The assay is classed as cell-based, human. Conditions: roscovitine-treated versus untreated. The protocol:
(§1) Cultured cells lines were seeded on six or twelve well tissue culture plates. When they reached 70-85% confluence, cells were infected with various amounts of recombinant GL adenovirus or control adenovirus. Adenovirus was added to each well in 300 μl medium and incubated for 2 hours at 37° C., 5% CO2. After incubation, 1.5 ml of medium was added and incubated at 37° C., 5% CO2. The medium was changed every day. At various time points post-infection, viable cells were counted using Trypan Blue and the remaining cells were collected and frozen for subsequent glycogen measurements.
Trypan Blue Viability Cell Counts: Trypan Blue (0.4%, Gibco) was used to stain dead and dying cells. Cells were removed from the tissue culture plates with 0.25% Trypsin-EDTA (Gibco #25200-056) and resuspended in 1 ml phosphate buffered saline (PBS). Manual cell counts were performed with a Neubauer hemocytometer.
Roscovitine Studies: Roscovitine (Calbiochem #557362), [2-(R)-(1-ethyl-2-hydroxyethylamino)-6-benzyl amino-9-isopropylpurine], is a potent and selective inhibitor of the cyclin-dependent kinases Cdk2 and Cdc2. Roscovitine stock solution was prepared in dimethylsulfoxide (DMSO) and stored at −20° C. until use. […]
Cell viability after viral infection was assessed using the Trypan Blue exclusion assay. Cells stained with Trypan Blue and viable cells are counted using a Neubauer hemocytometer. […]

Assay [3] concerns HeLa cells. The assay can be described thus: Glycogen assay (glucoamylase hydrolysis, glucose Trinder reagent). Type of assay: cell-based, human. Conditions: uninfected control HeLa cells, 35 μM roscovitine. On the procedure: as §1
Glycogen Assay: Enzymatic glycogen hydrolysis to glucose was performed according to Keppler and Decker with some modifications (Keppler and Decker, 1984 in: Methods of Enzymatic Analysis, 3rd ed. (Bergmeyer, H. U. Bergmeyer, J., and Grab, M. Eds.), Vol. 6, pp. 11-18, VCH, New York.). In brief, frozen cell pellets were subjected to three rounds of freezing and thawing to disrupt cell membranes. Cell pellets were resuspended in 200 μl 250 mU glucoamylase in 0.2 M sodium acetate buffer, pH 4.8. Lysates were incubated for two hours at 45° C. with shaking. Lysates were cleared by centrifugation at 2500 rpm for 10 min. […] Glucose was then determined with the glucose Trinder colorometric reagent (Sigma, 315-500). The intensity of the color reaction was measured at 505nm using a Molecular Devices VERSAmax microplate reader. […]

In assay [4] the test system is GSK-3. Conditions: cited from earlier work.

SMILES strings stand for the structures.

Consider `[Be+2]` [beryllium], for which the IC50 with GSK-3 [1] was 6 mM.

In the case of `CC[C@H](CO)Nc1nc(NCc2ccccc2)c2ncn(C(C)C)c2n1` [roscovitine, 2-(R)-(1-ethyl-2-hydroxyethylamino)-6-benzyl amino-9-isopropylpurine], the “cell viability of AdGL-infected cells” value with HeLa cells [2] is recorded as “significantly decreased”. Moreover, the glycogen accumulation entry in the assay on HeLa cells [3] is given as “no significant increases”. Regarding `[Zn+2]` [zinc], in the assay on GSK-3 [4], the “concentration at which GSK-3 is inhibited in cell culture” value was 15 mM.

Source of the values: patent US20050202559A1, “Cancer treatment by metabolic modulations” (priority 2002, published 2005).
